Measurements taken from ChEMBL document CHEMBL3045201, “Quantitative Structure-Activity Relationships of Fluazinam and Related Fungicidal N-phenylpyridinamines” (1996).
The source made the active and inactive calls. No cut-off for these calls is given here.

Key:
Rhizoctonia solani [1] = test: Fungicidal activity against Rhizoctonia solani infected in 24 hr compound pre-treated Oryza sativa cv. Chukyoasahi assessed as disease control measured after 10 days; format: functional
Pyricularia oryzae [2] = test: Fungicidal activity against Magnaporthe oryzae infected in 24 hr compound pre-treated Oryza sativa cv. Chukyoasahi assessed as disease control measured after 10 days; format: functional
Podosphaera fuliginea [3] = test: Fungicidal activity against Podosphaera fuliginea infected in 24 hr compound pre-treated cucumber plant assessed as disease control measured after 10 days; format: functional
Botrytis cinerea [4] = test: Fungicidal activity against Botryotinia fuckeliana assessed as SH-inhibition; format: functional, organism-based
Rhizoctonia solani [5] = test: Fungicidal activity against Rhizoctonia solani assessed as SH-inhibition; format: functional, organism-based
Pyricularia oryzae [6] = test: Fungicidal activity against Magnaporthe oryzae assessed as mitochondrial uncoupling activity; format: functional, organism-based
Rattus norvegicus = species: Rattus norvegicus; test: Inhibition of mitochondrial uncoupling in Rattus norvegicus (rat); format: functional, organism-based
Podosphaera fuliginea [7] = test: Fungicidal activity against Podosphaera fuliginea assessed as SH-inhibition; format: functional, organism-based
Pyricularia oryzae [8] = test: Fungicidal activity against Magnaporthe oryzae assessed as SH-inhibition; format: functional, organism-based
Podosphaera fuliginea [9] = test: Fungicidal activity against Podosphaera fuliginea assessed as mitochondrial uncoupling activity; format: functional, organism-based
Botrytis cinerea [10] = test: Fungicidal activity against Botryotinia fuckeliana assessed as mitochondrial uncoupling activity; format: functional, organism-based
Rhizoctonia solani [11] = test: Fungicidal activity against Rhizoctonia solani assessed as mitochondrial uncoupling activity; format: functional, organism-based

| Compound | I90 (Rhizoctonia solani [1]) | I90 (Pyricularia oryzae [2]) | I90 (Podosphaera fuliginea [3]) | also measured |
| --- | --- | --- | --- | --- |
| CCOc1c(C(F)(F)F)cc([N+](=O)[O-])c(Nc2ncc(C(F)(F)F)cc2Cl)c1[N+](=O)[O-] | 16 ppm | 16 ppm | 16 ppm |  |
| O=[N+]([O-])c1cc(C(F)(F)F)c(Cl)c([N+](=O)[O-])c1Nc1ncc(C(F)(F)F)cc1Cl [FLUAZINAM] |  | <16 ppm | 63 ppm | Activity (Botrytis cinerea [4]): Active; Activity (Rhizoctonia solani [5]): Active; Activity (Pyricularia oryzae [6]): Active; Activity (Rattus norvegicus): Active; Activity (Podosphaera fuliginea [7]): inactive; Activity (Pyricularia oryzae [8]): Active; Activity (Podosphaera fuliginea [9]): Active; Activity (Botrytis cinerea [10]): inactive; Activity (Rhizoctonia solani [11]): Active |
| CCCOc1c(C(F)(F)F)cc([N+](=O)[O-])c(Nc2ncc(C(F)(F)F)cc2Cl)c1[N+](=O)[O-] | 16 ppm | 63 ppm | >500 ppm |  |
| O=[N+]([O-])c1cc(C(F)(F)F)c(I)c([N+](=O)[O-])c1Nc1ncc(C(F)(F)F)cc1Cl | >500 ppm | 16 ppm | >500 ppm |  |
| CCCCOc1c(C(F)(F)F)cc([N+](=O)[O-])c(Nc2ncc(C(F)(F)F)cc2Cl)c1[N+](=O)[O-] | >500 ppm | >500 ppm | >500 ppm |  |
| Nc1c(C(F)(F)F)cc([N+](=O)[O-])c(Nc2ncc(C(F)(F)F)cc2Cl)c1[N+](=O)[O-] | >500 ppm | >500 ppm | >500 ppm |  |
| O=[N+]([O-])c1cc(C(F)(F)F)c(OCC(F)(F)F)c([N+](=O)[O-])c1Nc1ncc(C(F)(F)F)cc1Cl | 63 ppm | >500 ppm | 16 ppm |  |
| CC(C)COc1c(C(F)(F)F)cc([N+](=O)[O-])c(Nc2ncc(C(F)(F)F)cc2Cl)c1[N+](=O)[O-] | 63 ppm | >500 ppm | >500 ppm |  |
| C[S+]([O-])c1c(C(F)(F)F)cc([N+](=O)[O-])c(Nc2ncc(C(F)(F)F)cc2Cl)c1[N+](=O)[O-] (centres undefined) | >500 ppm | 63 ppm | >500 ppm |  |
| CSc1c(C(F)(F)F)cc([N+](=O)[O-])c(Nc2ncc(C(F)(F)F)cc2Cl)c1[N+](=O)[O-] | 16 ppm | <16 ppm | 16 ppm |  |
| COc1c(C(F)(F)F)cc([N+](=O)[O-])c(Nc2ncc(C(F)(F)F)cc2Cl)c1[N+](=O)[O-] | 16 ppm | <16 ppm | 63 ppm |  |
| O=[N+]([O-])c1cc(C(F)(F)F)c(Br)c([N+](=O)[O-])c1Nc1ncc(C(F)(F)F)cc1Cl | 63 ppm | 16 ppm | 63 ppm |  |
